Reference: patent US20240219374A1, “A Triple Co-Culture System for Drug Screening of Patient-Derived Cancer Cells and Methods of Use” (OncoPrecision Corporation, priority 2021, published 2024)

Experiments:
SC cells = assay: Magnetically printed 3D tumoroid triple co-culture, flow cytometry: SC cells; format: cell-based; conditions: 3D tumoroids; Cytarabine 200 nM; 6 days
Description: (§1) The 3D tumoroid was formed with or without extracellular matrix (ECM) embedded in culture media. […] On day 1, when the tumoroids were in a fully compact 3D configuration, the multiwell plates containing the tumoroid replicas (1 per well) were subjected to a matrix of treatments, including mono-drugs and combinations.
(§2) Magnetically printed 3D patient-micro-avatars (PMAs) using PDCs from an AML patient were prepared. PDCs from a bone marrow aspirate were processed by Ficoll-Paque to isolate the PBMC fraction, which was printed into 3D tumoroids in co-culture with SC cells and TC cells. Particularly, 10,000 PDC cells were mixed with 3,000 SC cells, and 8,000 TC cells.
(§3) 3D tumoroids so formed were treated for 6 days with vehicle or Cytarabine at 200 nM. […] At the end of the treatment, tumoroids were analyzed first by florescence microscopy (left panel of FIG. 12B). The tumoroids were subsequentially disaggregated mechanically and analyzed by flow cytometry to quantify the surviving fraction of PDCs, SC cells, and TC cells (right panel of FIG. 12B).

PDCs from an AML patient = assay: Magnetically printed 3D tumoroid triple co-culture, flow cytometry: PDCs; format: cell-based, human; conditions: 3D tumoroids; Cytarabine 200 nM; 6 days; 10,000 PDC, 3,000 SC, 8,000 TC cells
Description: as §1, §2, §3

TC cells = assay: Magnetically printed 3D tumoroid triple co-culture, flow cytometry: TC cells; format: cell-based; conditions: 3D tumoroids; Cytarabine 200 nM; 6 days
Description: as §1, §2, §3

[1] = system: TC cells (human bone marrow stroma cell line HS-5, Cayenne-RFP); assay: Triple co-culture drug test (DART), flow cytometry: Tox Control cells; format: cell-based; conditions: for cytotoxic effect on the TC cells: Example 8, FIG. 9A, Panobinostat 5 nM, Cytarabine 22 nM + Daunorubicine 41 nM, Venetoclax 1.6 μM
From the text: DMSO treated wells were used as controls.

[2] = system: PDC cells from patient OP #23 (acute myeloid leukemia); assay: Triple co-culture drug test (DART), flow cytometry: PDC cells of patient OP #23; conditions: for cytotoxic effect on the PDC cells: Example 8, FIG. 9A, 6 days, Panobinostat 5 nM, Cytarabine 22 nM + Daunorubicine 41 nM, Venetoclax 1.6 μM, PDC:SC:TC 10:1:1

| Compound | cytotoxic effects on the SC cells (SC cells) | cytotoxic effects on the cancer cells (PDCs) (PDCs from an AML patient) | cytotoxicity on the TC cells (TC cells) | cytotoxic effect on the TC cells ([1]; 6 days) | cytotoxic effect on the PDC cells [2] | cytotoxic activity on the TC cells ([1]; Example 9, FIG. 9C, four doses, 6 days) | effects on the TC cells ([1]; Example 12, FIG. 11B) | cytotoxic effects on the PDC cells ([2]; Example 12, FIG. 11B, top drugs alone or combined at the lowest dose, standard care in parallel) |
| --- | --- | --- | --- | --- | --- | --- | --- | --- |
| Nc1ccn([C@@H]2O[C@H](CO)[C@@H](O)[C@@H]2O)c(=O)n1 [cytarabine, Cytarabine] | strong cytotoxic effects | strong cytotoxic effects | moderate cytotoxicity |  |  |  |  |  |
| Cc1[nH]c2ccccc2c1CCNCc1ccc(/C=C/C(=O)NO)cc1 [Panobinostat] |  |  |  | neither the PDC cells nor the TC cells showed a response | neither the PDC cells nor the TC cells showed a response |  |  |  |
| CC1(C)CCC(CN2CCN(c3ccc(C(=O)NS(=O)(=O)c4ccc(NCC5CCOCC5)c([N+](=O)[O-])c4)c(Oc4cnc5[nH]ccc5c4)c3)CC2)=C(c2ccc(Cl)cc2)C1 [Venetoclax] |  |  |  | no cytotoxic effect | strong cytotoxic effect | no cytotoxic activity | exerted effects | cytotoxic effects |
